Source: ChEMBL document CHEMBL1148418, “BMS-201620: a selective beta 3 agonist” (Bioorg Med Chem Lett, 2004)

system: Monkey; assay: Compound was tested for in vivo lipolysis in african green monkeys after iv administration; format: functional; settings: Cercopithecidae, in Primates

Row | SMILES | ED50 [mg/kg]
1 | COc1ccc([C@](C)(NC[C@H](O)c2ccc(O)c(NS(C)(=O)=O)c2)C(=O)Nc2ccc(Cl)cc2)cc1 | 0.07
2 | COc1ccc([C@H](NC[C@H](O)c2ccc(O)c(NS(C)(=O)=O)c2)C(=O)Nc2ccc3c(c2)OCO3)cc1 (stereo in doubt; 17) | 0.08
3 | CCOP(=O)(Cc1ccc(NC(=O)[C@@](C)(NC[C@H](O)c2ccc(O)c(NS(C)(=O)=O)c2)c2ccc(OC)cc2)cc1)OCC | 0.1

species on record: Cavia porcellus; assay: Intrinsic activity was determined using spontaneously beating guinea pig atria by measuring contraction acceleration relative to isoproterenol response; format: functional; settings: not given

Row | SMILES | IA [%]
4 | COc1ccc([C@](C)(NC[C@H](O)c2ccc(O)c(NS(C)(=O)=O)c2)C(=O)Nc2ccc(O)cc2)cc1 | 90
5 | COc1ccc([C@](C)(NC[C@H](O)c2ccc(O)c(NS(C)(=O)=O)c2)C(=O)Nc2ccc(Cl)cc2)cc1 | 62
6 | COc1ccc([C@](C)(NC[C@H](O)c2ccc(O)c(NS(C)(=O)=O)c2)C(=O)Nc2ccccc2OC)cc1 | 60
7 | COc1ccc([C@](C)(NC[C@H](O)c2ccc(O)c(NS(C)(=O)=O)c2)C(=O)Nc2cccc(O)c2)cc1 | 96
8 | COc1ccc([C@](C)(NC[C@H](O)c2ccc(O)c(NS(C)(=O)=O)c2)C(=O)Nc2ccc(OCC(=O)O)cc2)cc1 | 100
9 | COc1ccc([C@](C)(NC[C@H](O)c2ccc(O)c(NS(C)(=O)=O)c2)C(=O)Nc2cccc(C)c2)cc1 | 73
10 | COc1ccc([C@](C)(NC[C@H](O)c2ccc(O)c(NS(C)(=O)=O)c2)C(=O)Nc2ccc(Cl)cc2F)cc1 | 43
11 | COc1ccc([C@](C)(NC[C@H](O)c2ccc(O)c(NS(C)(=O)=O)c2)C(=O)Nc2ccc(OCCN(C)C)cc2)cc1 | 92
12 | COc1ccc([C@](C)(NC[C@H](O)c2ccc(O)c(NS(C)(=O)=O)c2)C(=O)Nc2ccc(C)cc2)cc1 | 90
13 | COc1ccc([C@](C)(NC[C@H](O)c2ccc(O)c(NS(C)(=O)=O)c2)C(=O)Nc2ccccc2C)cc1 | 83
14 | COc1ccc([C@](C)(NC[C@H](O)c2ccc(O)c(NS(C)(=O)=O)c2)C(=O)Nc2ccc(Cl)c(Cl)c2)cc1 | 8
15 | COc1ccc([C@](C)(NC[C@H](O)c2ccc(O)c(NS(C)(=O)=O)c2)C(=O)Nc2ccc3sc(C)nc3c2)cc1 | 70
16 | COc1ccc([C@](C)(NC[C@H](O)c2ccc(O)c(NS(C)(=O)=O)c2)C(=O)Nc2cccc(OC)c2)cc1 | 85
17 | COc1ccc([C@](C)(NC[C@H](O)c2ccc(O)c(NS(C)(=O)=O)c2)C(=O)Nc2cc(Cl)cc(Cl)c2)cc1 | 13
18 | COc1ccc([C@](C)(NC[C@H](O)c2ccc(O)c(NS(C)(=O)=O)c2)C(=O)Nc2ccc(OC)c(OC)c2)cc1 | 89
19 | COc1ccc(NC(=O)[C@@](C)(NC[C@H](O)c2ccc(O)c(NS(C)(=O)=O)c2)c2ccc(OC)cc2)cc1 | 85
20 | COc1ccc([C@](C)(NC[C@H](O)c2ccc(O)c(NS(C)(=O)=O)c2)C(=O)Nc2cccc(OCCN(C)C)c2)cc1 | 85
21 | COc1ccc([C@](C)(NC[C@H](O)c2ccc(O)c(NS(C)(=O)=O)c2)C(=O)Nc2cccc(Cl)c2)cc1 | 50
22 | COc1ccc([C@H](NC[C@H](O)c2ccc(O)c(NS(C)(=O)=O)c2)C(=O)Nc2ccc3c(c2)OCO3)cc1 (stereo in doubt; 17) | 93
23 | COc1ccc([C@](C)(NC[C@H](O)c2ccc(O)c(NS(C)(=O)=O)c2)C(=O)Nc2cccc(Br)c2)cc1 | 50
24 | COc1ccc([C@H](NC[C@H](O)c2ccc(O)c(NS(C)(=O)=O)c2)C(=O)Nc2ccccc2)cc1 (stereo in doubt; 16) | 95
25 | COc1ccc([C@](C)(NC[C@H](O)c2ccc(O)c(NS(C)(=O)=O)c2)C(=O)Nc2cccc(CN)c2)cc1 | 91
26 | COc1ccc([C@](C)(NC[C@H](O)c2ccc(O)c(NS(C)(=O)=O)c2)C(=O)Nc2cc(OC)c(OC)c(OC)c2)cc1 | 66
27 | CCOP(=O)(Cc1ccc(NC(=O)[C@@](C)(NC[C@H](O)c2ccc(O)c(NS(C)(=O)=O)c2)c2ccc(OC)cc2)cc1)OCC | 55
28 | COc1ccc([C@](C)(NC[C@H](O)c2ccc(O)c(NS(C)(=O)=O)c2)C(=O)Nc2cc(Cl)c(Cl)c(Cl)c2)cc1 | 15
29 | COc1ccc([C@](C)(NC[C@H](O)c2ccc(O)c(NS(C)(=O)=O)c2)C(=O)Nc2cccc(OCC(=O)O)c2)cc1 | 87
